Measured values reported in patent US9802941B2, “Compounds and methods for inhibiting histone demethylases” (Gilead Sciences, Inc., priority 2014, dated 2017).
Where two headings read alike, the source gives them in different places.

Columns and labels:
Type in all cases: biochemical
[1] = biological target: T1, KDM4C (JMJD2C) (Homo sapiens, UniProt Q9H3R0); test: Histone lysine demethylase AlphaLISA assay, KDM4C
T1 construct: KDM4C; BRIC, Denmark; 1-349; E. coli; host or cells: E. coli
T1 sequence (Q9H3R0 1-349): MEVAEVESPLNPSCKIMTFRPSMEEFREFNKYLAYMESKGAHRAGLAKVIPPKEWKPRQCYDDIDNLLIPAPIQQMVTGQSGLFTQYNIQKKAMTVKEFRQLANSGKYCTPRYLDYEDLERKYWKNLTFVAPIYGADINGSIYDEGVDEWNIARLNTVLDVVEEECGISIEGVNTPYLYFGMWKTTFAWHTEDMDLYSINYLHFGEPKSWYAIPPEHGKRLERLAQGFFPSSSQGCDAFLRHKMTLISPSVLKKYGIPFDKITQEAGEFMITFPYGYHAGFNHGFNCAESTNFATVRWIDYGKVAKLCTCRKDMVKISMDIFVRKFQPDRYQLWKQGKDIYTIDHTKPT
Experimental: (§1) The compounds of the application, or a pharmaceutically acceptable salt, or solvate, or prodrug thereof, are tested in an in vitro AlphaLISA assay. Enzymes are dissolved in enzyme buffer and incubated before they are added to DMSO solutions of compounds of the application, or a pharmaceutically acceptable salt, or solvate, or prodrug thereof, in enzyme buffer. The reaction mixture is then incubated for an additional period of time before substrate solution is added and then the resulting mixture again incubated. Acceptor beads and suspended Epigenetic Buffer from stock are added and the suspension is again incubated before a suspension of streptavidin donor beads in Epigenetic Buffer is added. After an additional period of incubation, the plates are read.
(§2) The ability of compounds of the application to inhibit the histone lysine demethylase activity in vitro of different enzymes was determined.
(§3) The reaction mixture was incubated for another 10 minutes before 5 μL of substrate solution was added and the resulting mixture was then incubated at room temperature. […] After incubation at room temperature in the dark, the plates were read.
(§4) Enzyme Buffer: 50 mM Hepes (pH 7.4-8.0), 0.003-0.01% Tween-20, 0.1% BSA; 5 μM (NH4)2Fe(SO4)2.

[2] = biological target: T2, PHF8 (KDM7) (Homo sapiens, UniProt Q9UPP1); test: Histone lysine demethylase AlphaLISA assay, PHF8
T2 construct: KDM7 (PHF8); BRIC; 1-1322; Bac
T2 sequence (Q9UPP1 37-440 limits assumed): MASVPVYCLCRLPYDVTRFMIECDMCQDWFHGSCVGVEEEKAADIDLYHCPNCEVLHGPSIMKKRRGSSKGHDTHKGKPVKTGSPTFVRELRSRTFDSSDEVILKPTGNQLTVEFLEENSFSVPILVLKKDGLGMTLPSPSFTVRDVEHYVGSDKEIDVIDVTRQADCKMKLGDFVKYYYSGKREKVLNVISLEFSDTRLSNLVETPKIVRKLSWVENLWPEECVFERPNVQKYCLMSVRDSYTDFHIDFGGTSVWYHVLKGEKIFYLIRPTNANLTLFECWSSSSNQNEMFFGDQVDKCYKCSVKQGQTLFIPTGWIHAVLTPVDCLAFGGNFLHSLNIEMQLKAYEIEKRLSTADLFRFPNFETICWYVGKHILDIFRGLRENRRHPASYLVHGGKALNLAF
Experimental: as §1, §2, §3, §4

[3] = biological target: T3, KDM2B (FBXL10) (Homo sapiens, UniProt Q8NHM5); test: Histone lysine demethylase AlphaLISA assay, KDM2B
T3 construct: KDM2B; BPS,; 1-650; Bac; purchased BPS Bioscience, US; host or cells: baculovirus system
T3 sequence (Q8NHM5 1-650): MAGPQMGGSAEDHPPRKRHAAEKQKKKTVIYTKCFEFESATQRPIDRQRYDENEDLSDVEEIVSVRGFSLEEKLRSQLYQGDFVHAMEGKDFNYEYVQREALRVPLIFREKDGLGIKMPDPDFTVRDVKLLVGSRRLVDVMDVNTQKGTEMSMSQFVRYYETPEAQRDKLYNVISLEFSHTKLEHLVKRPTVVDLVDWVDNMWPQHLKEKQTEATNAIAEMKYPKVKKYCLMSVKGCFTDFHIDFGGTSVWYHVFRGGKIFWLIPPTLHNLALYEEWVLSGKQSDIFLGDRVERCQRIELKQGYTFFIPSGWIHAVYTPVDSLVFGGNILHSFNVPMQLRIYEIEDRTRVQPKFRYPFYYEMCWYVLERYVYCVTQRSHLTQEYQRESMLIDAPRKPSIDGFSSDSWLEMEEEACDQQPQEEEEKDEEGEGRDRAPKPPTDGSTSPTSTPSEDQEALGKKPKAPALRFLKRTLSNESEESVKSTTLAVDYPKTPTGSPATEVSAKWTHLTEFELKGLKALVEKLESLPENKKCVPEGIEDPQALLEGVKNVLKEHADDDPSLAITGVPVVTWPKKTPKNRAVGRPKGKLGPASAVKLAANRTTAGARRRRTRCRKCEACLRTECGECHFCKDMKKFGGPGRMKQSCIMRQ
Experimental: as §1, §2, §3, §4

[4] = biological target: T4, KDM5B (PLU-1) (Homo sapiens, UniProt Q9UGL1); test: Histone lysine demethylase AlphaLISA assay, KDM5B
T4 construct: BRIC; 1-809; E. coli; host or cells: E. coli
T4 sequence (Q9UGL1 1-809): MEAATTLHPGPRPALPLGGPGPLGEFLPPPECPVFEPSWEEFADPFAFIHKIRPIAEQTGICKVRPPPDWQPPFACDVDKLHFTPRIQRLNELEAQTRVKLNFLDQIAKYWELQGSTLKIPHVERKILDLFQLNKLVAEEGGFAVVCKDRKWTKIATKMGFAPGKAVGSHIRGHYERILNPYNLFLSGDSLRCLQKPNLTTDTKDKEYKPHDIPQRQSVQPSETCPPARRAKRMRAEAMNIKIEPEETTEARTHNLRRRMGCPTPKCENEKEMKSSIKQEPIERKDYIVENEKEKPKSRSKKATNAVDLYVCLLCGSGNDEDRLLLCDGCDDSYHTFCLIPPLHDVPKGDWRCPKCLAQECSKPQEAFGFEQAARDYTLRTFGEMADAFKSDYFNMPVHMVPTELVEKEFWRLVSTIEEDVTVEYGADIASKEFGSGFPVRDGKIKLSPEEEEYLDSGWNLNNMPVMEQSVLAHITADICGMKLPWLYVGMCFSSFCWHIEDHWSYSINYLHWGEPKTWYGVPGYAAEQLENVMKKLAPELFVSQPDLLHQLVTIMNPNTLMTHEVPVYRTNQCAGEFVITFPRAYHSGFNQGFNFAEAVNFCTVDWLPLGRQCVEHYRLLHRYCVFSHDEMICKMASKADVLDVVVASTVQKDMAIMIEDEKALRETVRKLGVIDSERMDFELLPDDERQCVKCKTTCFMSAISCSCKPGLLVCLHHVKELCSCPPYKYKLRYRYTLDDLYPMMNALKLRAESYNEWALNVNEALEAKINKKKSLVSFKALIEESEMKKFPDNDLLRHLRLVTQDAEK
Experimental: as §1, §2, §3, §4

[5] = AlphaLISA assay, read-out: HDME Inhibition KDM4C (IC50)
[6] = AlphaLISA, in vitro, read-out: HDME Inhibition KDM4C
[7] = AlphaLISA, in vitro, read-out: HDME Inhibition PHF8
[8] = AlphaLISA, in vitro, read-out: HDME Inhibition KDM2B
[9] = AlphaLISA assay, read-out: HDME Inhibition KDM5B (IC50)
[10] = AlphaLISA, in vitro, read-out: HDME Inhibition KDM5B

| Structure (SMILES) | IC50 [1, 5] [nM] | IC50 [1, 6] [nM] | IC50 [2, 7] [nM] | IC50 [3, 8] [nM] | IC50 [4, 9] [nM] | IC50 [4, 10] [nM] | IC50 [4] [nM] | IC50 ([2]; AlphaLISA assay, read-out: HDME Inhibition PHF8 (IC50)) [nM] | IC50 ([3]; AlphaLISA assay, read-out: HDME Inhibition KDM2B (IC50)) [nM] |
| --- | --- | --- | --- | --- | --- | --- | --- | --- | --- |
| Cc1cc(C(=O)O)cc(CNCc2nncn2C/C=C/c2ccccc2)n1 [Compound 67, 2-methyl-6-{[({4-[(2E)-3-phenylprop-2-en-1-yl]-4H-1,2,4-triazol-3-yl}methyl)amino]methyl}pyridine-4-carboxylic acid] | > 10000 | > 10000 | 791 | 715 | > 10000 | > 10000 |  |  |  |
| CCc1nnc(CNCc2cc(C(=O)O)cc(C)n2)n1C/C=C/c1ccccc1 [Compound 68, 2-{[({5-ethyl-4-[(2E)-3-phenylprop-2-en-1-yl]-4H-1,2,4-triazol-3-yl}methyl)amino]methyl}-6-methylpyridine-4-carboxylic acid] | > 10000 | > 10000 | 1800 | 1680 | > 10000 | > 10000 |  |  |  |
| CCc1nnc(CNCc2cc(C(=O)O)cc(CO)n2)n1CCCc1ccccc1 [Compound 69, 2-[({[5-ethyl-4-(3-phenylpropyl)-4H-1,2,4-triazol-3-yl]methyl}amino)methyl]-6-(hydroxymethyl)pyridine-4-carboxylic acid] | > 10000 | > 10000 | 662 | 27 | > 10000 | > 10000 |  |  |  |
| Cc1nnc(CNCc2cc(C(=O)O)cc(CO)n2)n1CCCC(C)C [Compound 70, 2-(hydroxymethyl)-6-[({[5-methyl-4-(4-methylpentyl)-4H-1,2,4-triazol-3-yl]methyl}amino)methyl]pyridine-4-carboxylic acid] | > 10000 | > 10000 | 1750 | 485 |  |  | 559 |  |  |
| O=C(O)c1cc(CO)nc(CNCc2nnc(Cc3cccs3)n2Cc2ccc(F)cc2)c1 [Compound 71, 2-{[({4-[(4-Fluorophenyl)methyl]-5-(thiophen-2-ylmethyl)-4H-1,2,4-triazol-3-yl}methyl)amino]methyl}-6-(hydroxymethyl)pyridine-4-carboxylic acid] | > 10000 | > 10000 | 1780 | 138 | > 10000 | > 10000 |  |  |  |
| Cc1nnc(CNCc2cc(C(=O)O)cc(CO)n2)n1Cc1ccc(F)cc1 [Compound 72, 2-{[({4-[(4-fluorophenyl)methyl]-5-methyl-4H-1,2,4-triazol-3-yl}methyl)amino]methyl}-6-(hydroxymethyl)pyridine-4-carboxylic acid] | > 10000 | > 10000 | 529 | 283 | > 10000 | > 10000 |  |  |  |
| CCCc1nnc(CNCc2cc(C(=O)O)cc(CO)n2)n1Cc1ccc(F)cc1 [Compound 73, 2-{[({4-[(4-fluorophenyl)methyl]-5-propyl-4H-1,2,4-triazol-3-yl}methyl)amino]methyl}-6-(hydroxymethyl)pyridine-4-carboxylic acid] | > 10000 | > 10000 | 1650 | 252 | > 10000 | > 10000 |  |  |  |
| C=CCn1ccnc1CNCc1cc(C(=O)O)cc(C)n1 [Compound 75, 2-methyl-6-[({[1-(prop-2-en-1-yl)-1H-imidazol-2-yl]methyl}amino)methyl]pyridine-4-carboxylic acid] | > 10000 | > 10000 | 1270 | 587 |  |  | 431 |  |  |
| CC(O)c1nnc(CNCc2cc(C(=O)O)cc(CO)n2)n1Cc1ccc(F)cc1 (centres unmarked) [Compound 77, 2-{[({4-[(4-fluorophenyl)methyl]-5-(1-hydroxyethyl)-4H-1,2,4-triazol-3-yl}methyl)amino]methyl}-6-(hydroxymethyl)pyridine-4-carboxylic acid] | > 10000 | > 10000 | 1090 | 379 | > 10000 | > 10000 |  |  |  |
| O=C(O)c1cc(CO)nc(CNCc2nncn2CCCc2ccccc2)c1 [Compound 78, 2-(hydroxymethyl)-6-[({[4-(3-phenylpropyl)-4H-1,2,4-triazol-3-yl]methyl}amino)methyl]pyridine-4-carboxylic acid] | > 10000 | > 10000 | 1140 | 340 |  |  | 641 |  |  |
| CC(C)C[C@@H](CO)NCc1cc(C(=O)O)cc(CO)n1 [Compound 79, 2-({[(2S)-1-hydroxy-4-methylpentan-2-yl]amino}methyl)-6-(hydroxymethyl)pyridine-4-carboxylic acid] | > 10000 | > 10000 | > 10000 | > 10000 | > 10000 | > 10000 |  | > 10000 | > 10000 |
| Cc1cc(C(=O)O)cc(CNCc2nccn2CC(C)C)n1 [Compound 80, 2-methyl-6-[({[1-(2-methylpropyl)-1H-imidazol-2-yl]methyl}amino)methyl]pyridine-4-carboxylic acid] | > 10000 | > 10000 | 5300 | 683 |  |  | 1990 |  |  |
| O=C(O)c1cc(CO)nc(CNCc2nccn2Cc2ccc(F)cc2)c1 [Compound 81, 2-{[({1-[(4-fluorophenyl)methyl]-1H-imidazol-2-yl}methyl)amino]methyl}-6-(hydroxymethyl)pyridine-4-carboxylic acid] |  | 823 | 334 | 140 |  |  | 21 |  |  |
| Cc1cc(OCc2ccccc2)c(CCNCc2cc(C(=O)O)cc(C)n2)nn1 [Compound 82, 2-[({2-[4-(benzyloxy)-6-methylpyridazin-3-yl]ethyl)amino)methyl]-6-methylpyridine-4-carboxylic acid] | > 10000 | > 10000 | 3320 | 1400 | > 10000 | > 10000 |  |  |  |
